Data on 14 compounds can be found in US9868766B2, “Peptides as oxytocin agonists” (Hoffmann-La Roche Inc., priority 2012, dated 2018).

Positions of bridges follow the written chain, without caps; N, C: chain ends. Non-standard residues stand in square brackets, D forms with d. Residues, ends and D or L forms follow the SMILES beside them. Phe(4-NH2) = Nc1ccc(C[C@H](N)C(=O)O)cc1; Aoc(2) = CCCCCC[C@H](N)C(=O)O; β3hP = O=C(O)C[C@@H]1CCCN1; Orn = NCCC[C@H](N)C(=O)O; Aze = O=C(O)[C@@H]1CCN1; Sar = CNCC(=O)O

Assay type in all cases: cell-based
For assay [1], the target named is T1, human Oxytocin (OTR) receptor (Homo sapiens, UniProt P30559).
T1 construct: expressed in transfected cells
T1 sequence (P30559 1-389): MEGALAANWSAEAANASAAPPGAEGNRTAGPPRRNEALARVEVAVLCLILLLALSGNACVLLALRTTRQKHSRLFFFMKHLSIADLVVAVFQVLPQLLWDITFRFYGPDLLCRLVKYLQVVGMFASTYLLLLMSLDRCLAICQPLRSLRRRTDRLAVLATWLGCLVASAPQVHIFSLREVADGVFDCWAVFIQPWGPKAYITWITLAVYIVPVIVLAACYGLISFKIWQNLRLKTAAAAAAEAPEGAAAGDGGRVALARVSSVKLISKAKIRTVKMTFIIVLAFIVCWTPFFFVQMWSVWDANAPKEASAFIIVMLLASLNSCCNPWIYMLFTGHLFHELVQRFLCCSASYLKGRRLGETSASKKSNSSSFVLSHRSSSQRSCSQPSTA
As to the kind of experiment: Calcium flux assay (FLIPR), agonist mode, CHO cells expressing human OTR. The settings on record: for EC50: CHO cells stably expressing human OTR, calcium flux, read-out: hOT EC50; for Emax: CHO, read-out: hOT efficacy (%); for Emax / hOT efficacy (%): maximum response normalized to endogenous full agonist = 100%. The source says:
(§1) Chines Hamster Ovary (CHO) cells were transfected with expression plasmids encoding either the human V1a, the human Oxytocin (OTR) or the humanV2 receptor, the later in combination with the chimeric Gqs5 G protein to redirect the signal to Calcium flux. Stable cells were cloned by limiting dilution to yield monoclonal cell lines expressing either human V1a, human V2+Gqs5 or human OTR receptors and selected based on functional responses detected on a fluorometric imaging plate reader (FLIPR) detecting Calcium flux in the cell after receptor activation.
On the afternoon before the assay, cells were plated at a density of 50,000 cells/well into black 96 well plates with clear bottoms to allow cell inspection and fluorescence measurements from the bottom of each well. The density of cells was sufficient to yield a confluent monolayer the next day. Hanks balanced salt solution, without phenol red, containing 20 mM HEPES (pH 7.3) and 2.5 mM probenecid (assay buffer) was prepared fresh for each experiment. Compound dilutions were made using a Beckman Biomek 2000 laboratory automation workstation, in assay buffer containing 1% DMSO. The dye-loading buffer consisted of a final concentration of 2 μM Fluo-4-AM (dissolved in DMSO and pluronic acid) in assay buffer. […] Once dye-loaded, the cells were washed thoroughly on an Embla cell washer with the assay buffer to remove any unincorporated dye. Exactly 100 μl assay buffer was left in each well.
Each 96 well plate containing dye-loaded cells was placed into the FLIPR machine and the laser intensity set to a suitable level to detect low basal fluorescence. To test compounds as agonists, 25 μl diluted compound was added to the plate 10 seconds into the fluorescent measurements and fluorescent response was recorded for 5 minutes. The fluorescence data was normalized to the endogenous full agonist dose-response set at 100% for the maximum response and 0% for the minimum. […] The concentration of agonist that produced a half-maximal response is represented by the EC50 value, the logarithm of which yielded the pEC50 value.
A general note: Calcium assays in cells follow changes in intracellular calcium, usually with a dye or a luminescent sensor.

For a further assay, the target named is T2, human V1a receptor (Homo sapiens, UniProt P37288).
T2 construct: expressed in transfected cells
T2 sequence (P37288 whole entry): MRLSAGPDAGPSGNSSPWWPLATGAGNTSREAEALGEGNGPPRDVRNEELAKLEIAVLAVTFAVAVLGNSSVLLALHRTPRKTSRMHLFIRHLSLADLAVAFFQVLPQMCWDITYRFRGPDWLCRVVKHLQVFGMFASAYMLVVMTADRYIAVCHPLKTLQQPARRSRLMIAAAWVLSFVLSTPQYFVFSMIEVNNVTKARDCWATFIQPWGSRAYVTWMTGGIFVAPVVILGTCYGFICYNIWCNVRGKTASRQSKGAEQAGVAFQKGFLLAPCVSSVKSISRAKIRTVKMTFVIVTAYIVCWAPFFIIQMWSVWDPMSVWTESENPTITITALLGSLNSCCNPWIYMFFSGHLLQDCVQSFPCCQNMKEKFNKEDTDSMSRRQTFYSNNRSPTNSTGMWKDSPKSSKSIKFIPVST
As to the kind of experiment: Calcium flux assay (FLIPR), agonist mode, CHO cells expressing human V1a. The settings on record: for EC50: CHO cells stably expressing human V1a, calcium flux, read-out: hV1a EC50; for hV1a efficacy (%): maximum response normalized to endogenous full agonist = 100%.
Text: as §1, with “activation. The stable cell lines were grown in F-12 K Nutrient Mixture (Kaighns Modification), containing 10% foetal bovine serum (FBS), 1% penicillin-streptomycin, 1% L-glutamate, 200 ug/ml Geneticin at 37° C. in a 10% CO2 incubator at 95% humidity.” for “activation.”
(§2) On the afternoon before the assay, cells were plated at a density of 50,000 cells/well into black 96 well plates with clear bottoms to allow cell inspection and fluorescence measurements from the bottom of each well. The density of cells was sufficient to yield a confluent monolayer the next day. Hanks balanced salt solution, without phenol red, containing 20 mM HEPES (pH 7.3) and 2.5 mM probenecid (assay buffer) was prepared fresh for each experiment. Compound dilutions were made using a Beckman Biomek 2000 laboratory automation workstation, in assay buffer containing 1% DMSO. The dye-loading buffer consisted of a final concentration of 2 μM Fluo-4-AM (dissolved in DMSO and pluronic acid) in assay buffer. The existing culture media was removed from the wells and 100 μl of the dye-loading buffer was added to each well and incubated for approximately 60 min at 37° C. in a 5% CO2 incubator at 95% humidity. Once dye-loaded, the cells were washed thoroughly on an Embla cell washer with the assay buffer to remove any unincorporated dye. Exactly 100 μl assay buffer was left in each well.
(§3) Each 96 well plate containing dye-loaded cells was placed into the FLIPR machine and the laser intensity set to a suitable level to detect low basal fluorescence. To test compounds as agonists, 25 μl diluted compound was added to the plate 10 seconds into the fluorescent measurements and fluorescent response was recorded for 5 minutes. The fluorescence data was normalized to the endogenous full agonist dose-response set at 100% for the maximum response and 0% for the minimum. Each agonist concentration-response curve was constructed using a four parameter logistic equation with Microsoft Excel XLFit as follows: Y=Minimum+((Maximum−Minimum)/(1+10^(Log EC50-X)nH)), where y is the % normalized fluorescence, minimum is the minimum y, maximum is the maximum y, log EC50 is the log10 concentration which produces 50% of the maximum induced fluorescence, x is the log10 of the concentration of the agonist compound and H is the slope of the curve (the Hill Coefficient). The maximum value gives the efficacy of the agonist test compound in percentage. The concentration of agonist that produced a half-maximal response is represented by the EC50 value, the logarithm of which yielded the pEC50 value.

The next assay deals with T3, human V2 receptor (Homo sapiens, UniProt P30518).
T3 construct: expressed in transfected cells
T3 sequence (P30518 whole entry): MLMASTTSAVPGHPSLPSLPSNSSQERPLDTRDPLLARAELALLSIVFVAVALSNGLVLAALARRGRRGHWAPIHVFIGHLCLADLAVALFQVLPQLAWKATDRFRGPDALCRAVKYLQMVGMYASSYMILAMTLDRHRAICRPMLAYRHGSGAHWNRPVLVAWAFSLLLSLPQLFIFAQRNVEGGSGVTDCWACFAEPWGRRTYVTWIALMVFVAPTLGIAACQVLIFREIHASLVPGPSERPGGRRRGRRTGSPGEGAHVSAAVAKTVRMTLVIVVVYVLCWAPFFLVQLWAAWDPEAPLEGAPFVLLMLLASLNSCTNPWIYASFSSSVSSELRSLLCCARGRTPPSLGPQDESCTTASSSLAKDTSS
Nature of the assay: Calcium flux assay (FLIPR), agonist mode, CHO cells expressing human V2 + Gqs5. The conditions noted are these: CHO; maximum response normalized to endogenous full agonist = 100%; read-out: hV2 efficacy (%).
Text: as §1, with “activation. The stable cell lines were grown in F-12 K Nutrient Mixture (Kaighns Modification), containing 10% foetal bovine serum (FBS), 1% penicillin-streptomycin, 1% L-glutamate, 200 ug/ml Geneticin at 37° C. in a 10% CO2 incubator at 95% humidity.” for “activation.”
as §2, §3

Consider `CC[C@H](C)[C@@H]1NC(=O)[C@H](Cc2ccc(O)cc2)NC(=O)CNC(=O)CC[C@@H](C(=O)N2CCC[C@H]2C(=O)N[C@@H](CC(C)C)C(=O)NCC(N)=O)NC(=O)[C@H](CC(N)=O)NC(=O)[C@H](CCCN)NC1=O` [Example 20] (GYI[Orn]NEPLG-NH2; lactam N-6), for which the half-maximal effective concentration (EC50) (in general, the concentration needed to bring the measured effect to its halfway point) in assay [1] is 40 nM; at human V1a receptor, > 12000 nM.

Regarding `CC[C@H](C)[C@@H]1NC(=O)[C@H](Cc2ccc(O)cc2)NC(=O)CNC(=O)CC[C@@H](C(=O)N2CCC[C@H]2C(=O)N[C@H](C(=O)NCC(N)=O)C(C)C)NC(=O)[C@H](CC(N)=O)NC(=O)[C@H](CCC(N)=O)NC1=O` [Example 19] (GYIQNEPVG-NH2; lactam N-6), in assay [1], the EC50 turned out to be 1.5 nM and the Emax turned out to be 122%. Further, on human V1a receptor, the EC50 stood at 127 nM and the “hV1a efficacy (%)” value stood at 33%.

As for `CC[C@H](C)[C@@H]1NC(=O)[C@H](Cc2ccc(O)cc2)NC(=O)CNC(=O)CC[C@@H](C(=O)N(C)CC(=O)N[C@@H](CCSC)C(=O)NCC(N)=O)NC(=O)[C@H](CC(N)=O)NC(=O)[C@H](CCC(N)=O)NC1=O` [Example 35] (GYIQNE[Sar]MG-NH2; lactam N-6), the Emax in assay [1] turned out to be 111%; at human V2 receptor, 104%.

As for `CC[C@H](C)[C@@H]1NC(=O)[C@H](Cc2ccc(O)cc2)NC(=O)CNC(=O)CC[C@@H](C(=O)N2CCC[C@H]2C(=O)N[C@@H](CCCCN)C(=O)NCC(N)=O)NC(=O)[C@H](CC(N)=O)NC(=O)[C@H](CCC(N)=O)NC1=O` [Example 21] (GYIQNEPKG-NH2; lactam N-6), in assay [1], the EC50 came out at 12 nM and the “hOT efficacy (%)” value amounted to 105%. In addition, at human V1a receptor, the half-maximal effective concentration (EC50) worked out at 32 nM and the “hV1a efficacy (%)” value turned out to be 55%.

Take `CC[C@H](C)[C@@H]1NC(=O)[C@H](Cc2ccc(O)cc2)NC(=O)CNC(=O)CC[C@@H](C(=O)N2CCC[C@H]2C(=O)N[C@@H](Cc2ccc(N)cc2)C(=O)NCC(N)=O)NC(=O)[C@H](CC(N)=O)NC(=O)[C@H](CCC(N)=O)NC1=O` [Example 11] (GYIQNEP[Phe(4-NH2)]G-NH2; lactam N-6): in assay [1], the EC50 amounted to 11 nM and the “hOT efficacy (%)” value amounted to 94%. Moreover, the EC50 on human V1a receptor is > 27000 nM.

Take `CC[C@H](C)[C@@H]1NC(=O)[C@H](Cc2ccc(O)cc2)NC(=O)CNC(=O)CC[C@@H](C(=O)N2CC[C@H]2C(=O)N[C@@H](CC(C)C)C(=O)NCC(N)=O)NC(=O)[C@H](CC(N)=O)NC(=O)[C@H](CCC(N)=O)NC1=O` [Example 50] (GYIQNE[Aze]LG-NH2; lactam N-6): in assay [1], the EC50 was determined as 3.6 nM and the Emax worked out at 99%. The EC50 on human V1a receptor is > 27000 nM.

Consider `CC[C@H](C)[C@@H]1NC(=O)[C@H](Cc2ccc(O)cc2)NC(=O)CNC(=O)CC[C@@H](C(=O)N[C@@H](C)C(=O)N[C@@H](C)C(=O)NCC(N)=O)NC(=O)[C@H](CC(N)=O)NC(=O)[C@H](CCC(N)=O)NC1=O` [Example 16] (GYIQNEAAG-NH2; lactam N-6), for which, in assay [1], the EC50 turned out to be 30 nM and the “hOT efficacy (%)” value turned out to be 105%. At human V1a receptor, the EC50 was > 12000 nM.

Take `CC[C@H](C)[C@@H]1NC(=O)[C@H](Cc2ccc(O)cc2)NC(=O)CNC(=O)CC[C@@H](C(=O)N[C@@H](C)C(=O)N[C@@H](CC(C)C)C(=O)NCC(N)=O)NC(=O)[C@H](CC(N)=O)NC(=O)[C@H](CCC(N)=O)NC1=O` [Example 17] (GYIQNEALG-NH2; lactam N-6): the concentration for a half-maximal effect (EC50) in assay [1] is 45 nM; at human V1a receptor, > 12000 nM. In assay [1], the “hOT efficacy (%)” value was found to be 92%.

Consider `CC[C@H](C)[C@@H]1NC(=O)[C@H](Cc2ccc(N)cc2)NC(=O)CNC(=O)CC[C@@H](C(=O)N2CCC[C@H]2C(=O)N[C@@H](CC(C)C)C(=O)NCC(N)=O)NC(=O)[C@H](CC(N)=O)NC(=O)[C@H](CCC(N)=O)NC1=O` [Example 10] (G[Phe(4-NH2)]IQNEPLG-NH2; lactam N-6), for which, in assay [1], the EC50 is 17 nM and the “hOT efficacy (%)” value amounted to 91%. Moreover, the EC50 on human V1a receptor was > 2700 nM.

With `CC[C@H](C)[C@@H]1NC(=O)[C@H](Cc2ccc(O)cc2)NC(=O)CNC(=O)CC[C@@H](C(=O)N2CCC[C@H]2C(=O)N[C@@H](C)C(=O)NCC(N)=O)NC(=O)[C@H](CC(N)=O)NC(=O)[C@H](CCC(N)=O)NC1=O` [Example 18] (GYIQNEPAG-NH2; lactam N-6), in assay [1], the EC50 worked out at 24 nM and the “hOT efficacy (%)” value is on record as 91%. The EC50 on human V1a receptor is > 12000 nM.

For `CC[C@H](C)[C@@H]1NC(=O)[C@H](Cc2ccc(O)cc2)NC(=O)CNC(=O)CC[C@@H](C(=O)N2CCC[C@H]2CC(=O)N[C@@H](CC(C)C)C(=O)NCC(N)=O)NC(=O)[C@H](CC(N)=O)NC(=O)[C@H](CCC(N)=O)NC1=O` [Example 4] (GYIQNE[β3hP]LG-NH2; lactam N-6), in assay [1], the EC50 came out at 31 nM and the “hOT efficacy (%)” value is listed as 102%.

As to `CC[C@H](C)[C@@H]1NC(=O)[C@H](Cc2ccc(O)cc2)NC(=O)CN(C)C(=O)CC[C@@H](C(=O)N2CCC[C@H]2C(=O)N[C@@H](CC(C)C)C(=O)NCC(N)=O)NC(=O)[C@H](CC(N)=O)NC(=O)[C@H](CCC(N)=O)NC1=O` [Example 12] ([Sar]YIQNEPLG-NH2; lactam N-6), in assay [1], the concentration giving a half-maximal response (EC50) worked out at 48 nM and the “hOT efficacy (%)” value is listed as 82%.

`CCCCCC[C@H](NC(=O)CN(C)C(=O)[C@@H]1CCC(=O)NCC(=O)N[C@@H](Cc2ccc(O)cc2)C(=O)N[C@@H]([C@@H](C)CC)C(=O)N[C@@H](CCC(N)=O)C(=O)N[C@@H](CC(N)=O)C(=O)N1)C(=O)NCC(N)=O` [Example 53] (GYIQNE[Sar][Aoc(2)]G-NH2; lactam N-6): in assay [1], the EC50 was 1.1 nM and the Emax worked out at 127%.

As to `CC[C@H](C)[C@@H]1NC(=O)[C@H](Cc2ccc(O)cc2)NC(=O)CNC(=O)CC[C@@H](C(=O)N(C)CC(=O)N[C@@H](CC(C)C)C(=O)NCC(N)=O)NC(=O)[C@H](CC(N)=O)NC(=O)[C@H](C)NC1=O` [Example 37] (GYIANE[Sar]LG-NH2; lactam N-6), in assay [1], the 50% effective concentration (EC50) came out at 4 nM and the Emax came to 137%.
